According to ChEMBL document CHEMBL3580646, “SAR and Structural Analysis of Siderophore-Conjugated Monocarbam Inhibitors of Pseudomonas aeruginosa PBP3” (ACS Med Chem Lett, 2015):
In brackets after ≈: the same amount, converted by molar mass.

Experiments:
[1] = Unbound fraction in human plasma after 16 hrs by LC-MS/MS analysis
[2] = Half life of the compound at pH 7.4 at 37 degC; type: ADME
Pseudomonas aeruginosa [3] = experiment: Activity of Pseudomonas aeruginosa PBP3 assessed as acylation rate constant
Pseudomonas aeruginosa [4] = experiment: Antibacterial activity against Pseudomonas aeruginosa PAO1 by broth microdilution method; type: functional
[5] = Clearance in Han Wistar rat at 1 mg/kg, iv; type: ADME, organism-based; conditions: in vivo
[6] = Half life in Han Wistar rat at 1 mg/kg, iv; type: ADME, organism-based; conditions: in vivo
[7] = Volume of distribution at steady state in Han Wistar rat at 1 mg/kg, iv; type: ADME, organism-based; conditions: in vivo, read-out: Vdss
Pseudomonas aeruginosa [8] = experiment: Antibacterial activity against Pseudomonas aeruginosa; type: functional

Row | Structure (SMILES) | fraction unbound at 16 h [1] | half-life [2] [h] | K (Pseudomonas aeruginosa [3]) | MIC (Pseudomonas aeruginosa [4]) [mg/L] | clearance [5] [L/h/kg] | half-life [6] [h] | Vd [7] [L/kg] | MIC90 (Pseudomonas aeruginosa [8]) [mg/L]
1 | C[C@H]1[C@H](NC(=O)/C(=N\OC(C)(C)C(=O)O)c2csc(N)n2)C(=O)N1C(=O)NS(=O)(=O)n1nc(-c2cc(=O)c(O)c[nH]2)n(C[C@@H](O)CO)c1=O | 0.04 | 117 | 7.2 ×10⁵ /M/s | 0.25 (≈ 0.343 µM) | – | – | – | –
2 | C[C@H]1[C@H](NC(=O)/C(=N\OC(C)(C)C(=O)O)c2csc(N)n2)C(=O)N1C(=O)NS(=O)(=O)n1nc(-c2cc(=O)c(O)c[nH]2)n(CCCS(C)(=O)=O)c1=O | 0.09 | 93 | 1.7 ×10⁵ /M/s | 0.25 (≈ 0.323 µM) | 0.438 | 3 | 0.21 | –
3 | C[C@H]1[C@H](NC(=O)/C(=N\OC(C)(C)C(=O)O)c2csc(N)n2)C(=O)N1C(=O)NS(=O)(=O)n1nc(-c2cc(=O)c(O)c[nH]2)n(CCNS(C)(=O)=O)c1=O | 0.08 | 61 | 4.1 ×10⁵ /M/s | 0.5 (≈ 0.645 µM) | – | – | – | –
4 | C[C@H]1[C@H](NC(=O)/C(=N\OC(C)(C)C(=O)O)c2csc(N)n2)C(=O)N1C(=O)NS(=O)(=O)n1nc(-c2cc(=O)c(O)cn2O)n(CCS(C)(=O)=O)c1=O | 0.2 | 102 | 2.5 ×10⁵ /M/s | 1 (≈ 1.29 µM) | – | – | – | –
5 | CC(C)(O/N=C(\C(=O)N[C@@H]1C(=O)N(C(=O)NS(=O)(=O)n2nc(-c3cc(=O)c(O)c[nH]3)n(CCCS(C)(=O)=O)c2=O)C1(C)C)c1csc(N)n1)C(=O)O | – | > 150 | 1.1 ×10⁵ /M/s | 8 (≈ 10.1 µM) | – | – | – | –
6 | C[C@H]1[C@H](NC(=O)/C(=N\OC(C)(C)C(=O)O)c2csc(N)n2)C(=O)N1C(=O)NS(=O)(=O)n1nc(-c2cc(=O)c(O)c[nH]2)n(CCCCS(C)(=O)=O)c1=O | 0.07 | 100 | 6.2 ×10⁵ /M/s | 0.25 (≈ 0.317 µM) | – | – | – | –
7 | C[C@@H](O)[C@H]1C(=O)N2C(C(=O)O)=C(S[C@@H]3CN[C@H](C(=O)N(C)C)C3)[C@H](C)[C@H]12 [MEROPENEM] | – | 95 | 4.9 ×10⁴ /M/s | 1 (≈ 2.61 µM) | – | – | – | –
8 | C[C@H]1[C@H](NC(=O)/C(=N\OC(C)(C)C(=O)O)c2csc(N)n2)C(=O)N1C(=O)NS(=O)(=O)n1nc(-c2cc(=O)c(O)c[nH]2)n(CCCNS(C)(=O)=O)c1=O | 0.08 | – | 3 ×10⁵ /M/s | 0.5 (≈ 0.633 µM) | – | – | – | –
9 | C[C@H]1[C@H](NC(=O)/C(=N\OC(C)(C)C(=O)O)c2csc(N)n2)C(=O)N1C(=O)NS(=O)(=O)n1nc(-c2cc(=O)c(O)cn2O)n(CCCS(C)(=O)=O)c1=O | 0.12 | 82 | 1.5 ×10⁵ /M/s | 4 (≈ 5.06 µM) | – | – | – | –
10 | C[C@H]1[C@H](NC(=O)/C(=N\OC(C)(C)C(=O)O)c2nsc(N)n2)C(=O)N1C(=O)NS(=O)(=O)n1nc(-c2cc(=O)c(O)c[nH]2)n(CCCS(C)(=O)=O)c1=O | 0.27 | 85 | 5 ×10⁵ /M/s | 0.25 (≈ 0.322 µM) | 0.57 | 2 | 0.26 | –
11 | CC(C)(O/N=C(\C(=O)N[C@H]1CN(C(=O)NS(=O)(=O)n2nc(-c3cc(=O)c(O)c[nH]3)n(C[C@@H](O)CO)c2=O)C1=O)c1csc(N)n1)C(=O)O | 0.06 | – | 8.1 ×10⁵ /M/s | 0.78 (≈ 1.09 µM) | – | – | – | –
12 | C[C@@H]1[C@H](NC(=O)/C(=N\OC(C)(C)C(=O)O)c2csc(N)n2)C(=O)N1C(=O)NS(=O)(=O)n1nc(-c2cc(=O)c(O)c[nH]2)n(CCCS(C)(=O)=O)c1=O | – | 76 | 1.6 ×10⁵ /M/s | 1 (≈ 1.29 µM) | – | – | – | –
13 | C[C@H]1[C@H](NC(=O)/C(=N\OC(C)(C)C(=O)O)c2csc(N)n2)C(=O)N1C(=O)NS(=O)(=O)n1nc(-c2cc(=O)c(O)c[nH]2)n(CC2(CS(C)(=O)=O)CC2)c1=O | 0.09 | 71 | 2.5 ×10⁵ /M/s | 0.5 (≈ 0.624 µM) | – | – | – | –
14 | Cn1c(-c2cc(=O)c(O)c[nH]2)nn(S(=O)(=O)NC(=O)N2C[C@H](NC(=O)/C(=N\OC(C)(C)C(=O)O)c3csc(N)n3)C2=O)c1=O | 0.05 | – | 1.7 ×10⁵ /M/s | 0.78 (≈ 1.19 µM) | – | – | – | –
15 | C[C@H]1[C@H](NC(=O)/C(=N\OC(C)(C)C(=O)O)c2csc(N)n2)C(=O)N1C(=O)NS(=O)(=O)n1nc(-c2cc(=O)c(O)c[nH]2)n(CCC2(S(C)(=O)=O)CC2)c1=O | 0.04 | 94 | 4.5 ×10⁵ /M/s | 0.5 (≈ 0.624 µM) | – | – | – | –
16 | C=C[C@H]1[C@H](NC(=O)/C(=N\OC(C)(C)C(=O)O)c2csc(N)n2)C(=O)N1C(=O)NS(=O)(=O)n1nc(-c2cc(=O)c(O)c[nH]2)n(CCCS(C)(=O)=O)c1=O | – | 53 | 2.1 ×10⁵ /M/s | 0.5 (≈ 0.635 µM) | 0.66 | 2 | 0.18 | –
17 | C[C@H]1[C@H](NC(=O)/C(=N\OC(C)(C)C(=O)O)c2nc(N)sc2Cl)C(=O)N1C(=O)NS(=O)(=O)n1nc(-c2cc(=O)c(O)c[nH]2)n(CCCS(C)(=O)=O)c1=O | 0.06 | 118 | 3.2 ×10⁵ /M/s | 1 (≈ 1.24 µM) | – | – | – | –
18 | C=C[C@@H]1[C@H](NC(=O)/C(=N\OC(C)(C)C(=O)O)c2csc(N)n2)C(=O)N1C(=O)NS(=O)(=O)n1nc(-c2cc(=O)c(O)c[nH]2)n(CCCS(C)(=O)=O)c1=O | – | 38 | 1.9 ×10⁵ /M/s | 2 (≈ 2.54 µM) | – | – | – | –
19 | C[C@H]1[C@H](NC(=O)/C(=N\OC(C)(C)C(=O)O)c2csc(N)n2)C(=O)N1C(=O)NS(=O)(=O)n1nc(-c2cc(=O)c(O)c[nH]2)n(CCS(C)(=O)=O)c1=O | 0.06 | 86 | 3.2 ×10⁵ /M/s | 0.13 (≈ 0.171 µM) | 0.534 | 2.5 | 0.23 | 1 (≈ 1.31 µM)
20 | CC[C@H]1[C@H](NC(=O)/C(=N\OC(C)(C)C(=O)O)c2csc(N)n2)C(=O)N1C(=O)NS(=O)(=O)n1nc(-c2cc(=O)c(O)c[nH]2)n(CCCS(C)(=O)=O)c1=O | – | 98 | 3.6 ×10⁵ /M/s | 0.5 (≈ 0.634 µM) | 0.72 | 2 | 0.35 | –
21 | C[C@H]1[C@H](NC(=O)/C(=N\OC(C)(C)C(=O)O)c2csc(N)n2)C(=O)N1C(=O)NS(=O)(=O)n1nc(-c2cc(=O)c(O)c[nH]2)n(CCS(N)(=O)=O)c1=O | – | 102 | > 4 ×10⁵ /M/s | < 0.6 | – | – | – | –
22 | CC[C@@H]1[C@H](NC(=O)/C(=N\OC(C)(C)C(=O)O)c2csc(N)n2)C(=O)N1C(=O)NS(=O)(=O)n1nc(-c2cc(=O)c(O)c[nH]2)n(CCCS(C)(=O)=O)c1=O | – | 94 | 8.8 ×10⁵ /M/s | 1 (≈ 1.27 µM) | – | – | – | –
23 | C[C@H]1[C@H](NC(=O)/C(=N\OC(C)(C)C(=O)O)c2csc(N)n2)C(=O)N1S(=O)(=O)O [AZTREONAM] | – | – | – | 4 (≈ 9.19 µM) | – | – | – | ≥ 1020
24 | C[C@H]1[C@H](NC(=O)/C(=N\OC(C)(C)C(=O)O)c2csc(N)n2)C(=O)N1C(=O)NS(=O)(=O)n1nc(-c2cc(=O)c(O)c[nH]2)n(CCCS(=O)(=O)c2ccccc2)c1=O | 0.03 | > 150 | > 4 ×10⁵ /M/s | 1 (≈ 1.19 µM) | – | – | – | –
25 | C[C@H]1[C@H](NC(=O)/C(=N\OC(C)(C)C(=O)O)c2csc(N)n2)C(=O)N1C(=O)NS(=O)(=O)n1nc(-c2cc(=O)c(O)c[nH]2)n(C[C@@H](O)CS(C)(=O)=O)c1=O | 0.04 | 87 | 5.4 ×10⁵ /M/s | 1 (≈ 1.26 µM) | – | – | – | –
26 | CCC[C@@H]1[C@H](NC(=O)/C(=N\OC(C)(C)C(=O)O)c2csc(N)n2)C(=O)N1C(=O)NS(=O)(=O)n1nc(-c2cc(=O)c(O)c[nH]2)n(CCCS(C)(=O)=O)c1=O | – | > 150 | 7.4 ×10⁵ /M/s | 4 (≈ 4.98 µM) | – | – | – | –
27 | C=CC[C@@H]1[C@H](NC(=O)/C(=N\OC(C)(C)C(=O)O)c2csc(N)n2)C(=O)N1C(=O)NS(=O)(=O)n1nc(-c2cc(=O)c(O)c[nH]2)n(CCCS(C)(=O)=O)c1=O | – | 126 | 5.9 ×10⁵ /M/s | 8 (≈ 9.99 µM) | – | – | – | –
